What was measured:
Type in all cases: in vivo
[1] = tested on: wild buckwheat (Polygonum convululus); assay: Postemergence herbicidal activity in corn, wild buckwheat; conditions: corn test, visual rating after 21 d, probit analysis, dose to kill or control 80 percent
Description: (§1) Seeds of corn and the desired weed species were planted in Sun Gro MetroMix 360 planting mixture, which typically has a pH of 6.0 to 6.8 and an organic matter content of about 30 percent, in plastic pots with a surface area of 95 cm^2. When required to ensure good germination and healthy plants, a fungicide treatment and/or other chemical or physical treatment was applied. The plants were grown for 7-21 d in a greenhouse with an approximate 15-h photoperiod which was maintained at about 23-29° C. during the day and 22-28° C. during the night. Nutrients and water were added on a regular basis and supplemental lighting was provided with overhead metal halide 1000-Watt lamps as necessary. The corn plants were utilized for testing when they reached the second true leaf stage. The weed species were utilized at the first or second true leaf stage.
(§2) A weighed amount, determined by the highest rate to be tested, of each test compound was dissolved in 4 mL of a 97:3 v/v mixture of acetone and DMSO to obtain concentrated stock solutions. […] The concentrated stock solutions obtained were diluted with 20 mL of an aqueous mixture containing acetone, water, isopropyl alcohol, DMSO, Atplus 411F crop oil concentrate, and Triton X-155 surfactant in a 48.5:39:10:1.5:1.0:0.02 v/v ratio to obtain spray solutions containing the highest application rates. […]
(§3) The treated plants and control plants were placed in a greenhouse as described above and watered by sub-irrigation to prevent wash-off of the test compounds. After 21 d, the condition of the test plants as compared with that of the untreated plants was determined visually and scored on a scale of 0 to 100 percent where 0 corresponds to no injury and 100 corresponds to complete kill. […]

[2] = tested on: lambsquarters (Chenopodium album); assay: General postemergence herbicidal activity, lambsquarters; conditions: post-emergence, 336 h, 70 g ai/ha, postemergence, after 14 d, 0 = no injury, 100 = complete kill, read-out: CHEAL % Visual Injury
Procedure, shortened: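 Greenhouse plants at first to second true leaf stage sprayed overhead at 187 L/ha in acetone/DMSO with crop oil concentrate and surfactant, at a high rate plus ½× to 1/16× serial dilutions. Injury rated visually after 14 d against solvent-blank controls, 0 (none) to 100% (complete kill).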

[3] = tested on: lambsquarters (Chenopodium album); assay: Postemergence herbicidal activity in corn, lambsquarters; conditions: corn test, visual rating after 21 d, probit analysis, dose to kill or control 80 percent
Description: as §1, §2, §3

| Compound | POLCO GR80 [1] [g ai/ha] | pest or weed control at 70 g/ha [2] [%] | CHEAL GR80 [3] [g ai/ha] |
| --- | --- | --- | --- |
| COc1c(Cl)ccc(-c2cc(N)c(Cl)c(C(=O)NOCC(C)C)n2)c1F [Compound 1, 4-amino-3-chloro-6-(4-chloro-2-fluoro-3-methoxyphenyl)-N-(2-methylpropoxy)picolinamide] | <4 | 100 | <4 |
| CONC(=O)c1nc(-c2ccc(Cl)c(OC)c2F)cc(N)c1Cl [Compound 2, 4-Amino-3-chloro-6-(4-chloro-2-fluoro-3-methoxyphenyl)-N-methoxypicolinamide] | 6 | 100 | <4 |
